Read-outs that look alike come from different tables or passages of the source.
Legend:
[1] = tested on: Puccinia triticina; synonym: Puccinia recondita f. sp. tritici; assay: Fungicide mobility (dropline mobility test): wheat brown rust (PUCCRT); type: in vivo; settings: 1 ug/leaf
Procedure: Evaluation of Fungicide Mobility: Wheat Brown Rust (Puccinia triticina; Synonym: Puccinia recondita f. sp. tritici; Bayer Code PUCCRT) “Yuma” wheat seedlings were used in the test. One mg of compound was dissolved in 9 μl of EC blank (emulsifiable concentrate) and 500 μl of acetone. Acetone was then evaporated overnight by leaving the vial open in a fume hood. Two milliliters of water containing 110 ppm Triton X-100 was added to each vial to prepare application solutions. A 2 μl drop of formulated material was applied to a marked line on the adaxial surface 5 cm from the leaf tip of the primary leaves. The primary leaves were kept in a horizontal position. Each treatment had 6 replicates. Plants were inoculated with PUCCRT 1-day after (1DPM) or 3-day prior to (3DCM) compound applications. When rust was fully expressed on primary leaves on control plants, the zone of treated leaves that was disease-free in the acropetal direction was measured with a ruler and converted to percent of the distance from marked line to leaf tip.

[2] = tested on: Puccinia triticina; synonym: Puccinia recondita f. sp. tritici; assay: Fungicidal activity: wheat brown rust (PUCCRT), wheat seedlings; type: in vivo
Procedure, shortened: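 Wheat (Yuma) seedlings at first-leaf stage, inoculated with Puccinia triticina spores before or after treatment, held overnight in dark dew room at 22° C, 100% RH, then greenhouse at 24° C. Acetone solutions diluted with nine volumes water containing 110 ppm Triton X-100, sprayed to run-off. Percent disease control derived from severity (0–100%) relative to untreated plants.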

[3] = tested on: Mycosphaerella graminicola; anamorph: Septoria tritici; assay: Fungicidal activity: leaf blotch of wheat (SEPTTR), wheat seedlings; type: in vivo; settings: Zymoseptoria tritici
Procedure, shortened: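 Compounds in acetone were diluted with nine volumes of water containing 110 ppm Triton X-100 and sprayed to run-off on Yuma wheat seedlings at first-leaf stage. Septoria tritici spores were inoculated before or after treatment, followed by dew chambers at 100% RH and 20 °C, then greenhouse at 20 °C. Severity (0–100%) was scored once untreated plants were fully diseased; control was calculated relative to untreated plants.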

[4] = 24 h, 1 Day Protectant Mobility, read-out: Dropline Mobility Test PUCCRT 1DPM
[5] = 72 h, 3 Day Curative Mobility, read-out: Dropline Mobility Test PUCCRT 3DCM
[6] = 24 h, 100 ppm, 1 Day Protectant, wheat, read-out: Disease Control PUCCRT 1DP
[7] = 72 h, 100 ppm, 3 Day Curative, wheat, read-out: Disease Control PUCCRT 3DC
[8] = 24 h, 100 ppm, 1 Day Protectant, wheat, read-out: Disease Control SEPTTR 1DP
[9] = 72 h, 100 ppm, 3 Day Curative, wheat, read-out: Disease Control SEPTTR 3DC
[10] = 24 h, read-out: Disease Control PUCCRT 1DP
[11] = 72 h, read-out: Disease Control PUCCRT 3DC
[12] = 24 h, read-out: Disease Control SEPTTR 1DP
[13] = 72 h, read-out: Disease Control SEPTTR 3DC

SMILES | pest or weed control at 1 µg/leaf [1, 4] [%] | pest or weed control at 1 µg/leaf [1, 5] [%] | melting point [°C] | pest or weed control at 100 ppm [2, 6] [%] | pest or weed control at 100 ppm [2, 7] [%] | pest or weed control at 100 ppm [3, 8] [%] | pest or weed control at 100 ppm [3, 9] [%] | pest or weed control at 100 ppm [2, 10] [%] | pest or weed control at 100 ppm [2, 11] [%] | pest or weed control at 100 ppm [3, 12] [%] | pest or weed control at 100 ppm [3, 13] [%]
COc1ccnc(C(=O)N[C@H]2COC[C@H](OC3CCCCC3)[C@@H](OCC(C)C)[C@H](C)OC2=O)c1O [Compound 73] | 0 to 80 | 0 to 80 | 122 to 125 | 80 to 100 | 80 to 100 | 80 to 100 | 80 to 100 |  |  |  | 
COc1ccnc(C(=O)N[C@H]2COC[C@H](Oc3ccccc3)[C@@H](OCC(C)C)[C@H](C)OC2=O)c1O [Compound 83] | 80 to 100 | 0 to 80 | 112 to 113 | 80 to 100 | 80 to 100 | 80 to 100 | 80 to 100 |  |  |  | 
CCCCO[C@H]1COC[C@H](NC(=O)c2nccc(OC)c2O)C(=O)O[C@@H](C)[C@@H]1OCC(C)C [Compound 48, N-((3S,7S,8S,9S)-7-butoxy-8-isobutoxy-9-methyl-2-oxo-1,5-dioxonan-3-yl)-3-hydroxy-4-methoxypicolinamide] |  |  | 104 to 106 | 80 to 100 | 80 to 100 | 80 to 100 | 80 to 100 |  |  |  | 
C=CCO[C@H]1[C@H](C)OC(=O)[C@@H](NC(=O)c2nccc(OC)c2O)COC[C@@H]1OCCCC [Compound 43, N-((3S,7S,8S,9S)-8-(allyloxy)-7-butoxy-9-methyl-2-oxo-1,5-dioxonan-3-yl)-3-hydroxy-4-methoxypicolinamide] |  |  | 101 to 103 | 80 to 100 | 80 to 100 | 80 to 100 | 0 to 80 |  |  |  | 
CCCCO[C@H]1COC[C@H](NC(=O)c2nccc(OC)c2O)C(=O)O[C@@H](C)[C@@H]1OCCC [Compound 44, N-((3S,7S,8S,9S)-7-butoxy-9-methyl-2-oxo-8-propoxy-1,5-dioxonan-3-yl)-3-hydroxy-4-methoxypicolinamide] |  |  | 110 to 112 | 80 to 100 | 80 to 100 | 80 to 100 | 80 to 100 |  |  |  | 
COc1ccnc(C(=O)N[C@H]2COC[C@H](OC)[C@@H](OC)[C@H](C)OC2=O)c1O [Compound 63, N-((3S,7S,8S,9S)-7,8-dimethoxy-9-methyl-2-oxo-1,5-dioxonan-3-yl)-3-hydroxy-4-methoxypicolinamide] | 0 to 80 |  | 165 to 167 |  |  |  | 0 to 80 |  |  |  | 
COc1ccnc(C(=O)N[C@H]2COC[C@H](OCC(C)C)[C@@H](OCC(C)C)COC2=O)c1OCOC(C)=O [Compound 13] |  |  | 58 to 64 | 80 to 100 | 80 to 100 | 80 to 100 |  |  |  |  | 
CCCCO[C@H]1COC[C@H](NC(=O)c2nccc(OC)c2O)C(=O)O[C@@H](C)[C@@H]1OC [Compound 36, N-((3S,7S,8S,9S)-7-butoxy-8-methoxy-9-methyl-2-oxo-1,5-dioxonan-3-yl)-3-hydroxy-4-methoxypicolinamide] |  |  | 118 to 120 | 80 to 100 | 80 to 100 | 0 to 80 | 0 to 80 |  |  |  | 
COc1ccnc(C(=O)N[C@@H]2COC[C@H](OCC(C)C)[C@@H](OCC(C)C)COC2=O)c1O [Compound 10] |  |  | 92 to 97 | 0 to 80 | 0 to 80 | 0 to 80 | 0 to 80 |  |  |  | 
CCCCO[C@H]1COC[C@H](NC(=O)c2nccc(OC)c2O)C(=O)O[C@@H](C)[C@@H]1OCc1ccccc1 [Compound 33, N-((3S,7S,8S,9S)-8-(benzyloxy)-7-butoxy-9-methyl-2-oxo-1,5-dioxonan-3-yl)-3-hydroxy-4-methoxypicolinamide] |  |  | 117 to 119 |  |  |  |  | 80 to 100 | 80 to 100 | 80 to 100 | 0 to 80
COc1ccnc(C(=O)N[C@H]2COC[C@H](OCC3CC3)[C@@H](OCC3CC3)[C@H](C)OC2=O)c1O [Compound 209] |  |  | 114 to 117 | 0 to 80 | 0 to 80 |  | 0 to 80 |  |  |  | 
COc1ccnc(C(=O)N[C@H]2COC[C@H](OC(=O)C(C)C)[C@@H](OC(=O)C(C)C)[C@H](C)OC2=O)c1O [Compound 56, (3S,7S,8S,9S)-3-(3-hydroxy-4-methoxypicolinamido)-9-methyl-2-oxo-1,5-dioxonane-7,8-diyl bis(2-methylpropanoate)] |  |  | 111 to 113 |  |  |  |  | 80 to 100 | 80 to 100 | 0 to 80 | 80 to 100
CCCCO[C@H]1COC[C@H](NC(=O)c2nccc(OC)c2O)C(=O)O[C@@H](C)[C@@H]1OCC(C)(C)Cl [Compound 87, N-((3S,7S,8S,9S)-7-butoxy-8-(2-chloro-2-methylpropoxy)-9-methyl-2-oxo-1,5-dioxonan-3-yl)-3-hydroxy-4-methoxypicolinamide] | 0 to 80 | 80 to 100 | 115 to 117 |  |  |  |  |  |  |  | 
CC[C@@H]1OC(=O)[C@@H](NC(=O)c2nccc(OC)c2O)COC[C@H](OCC(C)C)[C@H]1OCC(C)C [Compound 21, N-((3S,7S,8S,9S)-9-ethyl-7,8-diisobutoxy-2-oxo-1,5-dioxonan-3-yl)-3-hydroxy-4-methoxypicolinamide] |  |  | 119 to 121 | 80 to 100 | 80 to 100 | 80 to 100 | 0 to 80 |  |  |  | 
COc1ccnc(C(=O)N[C@H]2COC[C@H](OCC(C)C)[C@@H](Oc3ccccc3)[C@H](C)OC2=O)c1O [Compound 82, 3-hydroxy-N-((3S,7S,8S,9S)-7-isobutoxy-9-methyl-2-oxo-8-phenoxy-1,5-dioxonan-3-yl)-4-methoxypicolinamide] | 80 to 100 | 0 to 80 | 117 to 119 |  |  |  |  | 80 to 100 | 80 to 100 | 80 to 100 | 0 to 80
COc1ccnc(C(=O)N[C@H]2COC[C@H](OCC3CC3)[C@@H](OCC3CC3)[C@H](C)OC2=O)c1OC(C)=O [Compound 232] |  |  | 54 to 60 | 80 to 100 | 80 to 100 | 80 to 100 | 0 to 80 |  |  |  | 
CCCCO[C@H]1[C@H](C)OC(=O)[C@@H](NC(=O)c2nccc(OC)c2O)COC[C@@H]1OCc1ccccc1 [Compound 32, N-((3S,7S,8S,9S)-7-(benzyloxy)-8-butoxy-9-methyl-2-oxo-1,5-dioxonan-3-yl)-3-hydroxy-4-methoxypicolinamide] |  |  | 105 to 107 | 80 to 100 | 80 to 100 | 80 to 100 | 0 to 80 |  |  |  | 
CCC(C)(C)O[C@H]1COC[C@H](NC(=O)c2nccc(OC)c2O)C(=O)O[C@@H](C)[C@@H]1OCC(C)C [Compound 71, 3-hydroxy-N-((3S,7S,8S,9S)-8-isobutoxy-9-methyl-2-oxo-7-(tert-pentyloxy)-1,5-dioxonan-3-yl)-4-methoxypicolinamide] |  |  | 138 to 140 | 80 to 100 | 0 to 80 | 80 to 100 | 0 to 80 |  |  |  | 
CCCCO[C@H]1COC[C@H](NC(=O)c2nccc(OC)c2O)C(=O)O[C@@H](C)[C@@H]1OCC(F)F [Compound 53, N-((3S,7S,8S,9S)-7-butoxy-8-(2,2-difluoroethoxy)-9-methyl-2-oxo-1,5-dioxonan-3-yl)-3-hydroxy-4-methoxypicolinamide] |  |  | 127 to 129 |  |  |  |  | 80 to 100 | 80 to 100 | 0 to 80 | 0 to 80
